Values quoted from earlier work in patent publication US20240325452A1, “METHODS AND COMPOSITIONS FOR DREADD-ACTIVATABLE CELLS FOR NEURAL REPAIR” (Drexel University, priority 2023, published 2024).

Columns and labels:
hM3Dq = hM3Dq (Homo sapiens, UniProt P20309, A239G/Y149C); settings: hM3 with two point mutations
[1] = it has been reported
hM3Dq and hM4Di DREADDs = settings: marketed ligands, active in vivo

Sequence of hM3Dq (P20309 whole entry Y149C/A239G): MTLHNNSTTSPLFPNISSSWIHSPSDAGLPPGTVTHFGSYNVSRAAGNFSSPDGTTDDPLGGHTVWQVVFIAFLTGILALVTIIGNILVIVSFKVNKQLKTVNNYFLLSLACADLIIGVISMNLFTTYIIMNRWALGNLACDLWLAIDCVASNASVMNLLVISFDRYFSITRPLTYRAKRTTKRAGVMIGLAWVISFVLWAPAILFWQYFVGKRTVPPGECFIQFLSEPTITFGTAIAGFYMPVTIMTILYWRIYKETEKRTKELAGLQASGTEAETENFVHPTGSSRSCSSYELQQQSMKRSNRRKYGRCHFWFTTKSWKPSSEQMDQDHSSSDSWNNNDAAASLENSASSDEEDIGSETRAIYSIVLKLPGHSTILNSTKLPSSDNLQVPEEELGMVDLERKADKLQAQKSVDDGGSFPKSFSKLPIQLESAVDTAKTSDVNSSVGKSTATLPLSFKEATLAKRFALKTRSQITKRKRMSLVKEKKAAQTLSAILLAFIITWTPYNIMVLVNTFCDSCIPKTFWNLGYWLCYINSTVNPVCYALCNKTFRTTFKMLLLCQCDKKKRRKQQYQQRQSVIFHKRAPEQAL

In the case of `C[N+]1([O-])CCN(C2=Nc3cc(Cl)ccc3Nc3ccccc32)CC1` [CNO, clozapine N-oxide], the “potency at mutant receptor” value (hM3Dq) is listed as “nanomolar potency”.

For `c1ccc2c(c1)N=C(N1CCNCC1)c1ccccc1N2` [Compound 21], the “bioavailability, pharmacokinetic properties and brain penetrability” value [1] is listed as “excellent” and the “reverse metabolism to clozapine” value [1] is listed as “does not undergo reverse metabolism to clozapine”.

For `CCN1CCN(C2=Nc3cc(Cl)ccc3Nc3c(F)cccc32)CC1` [JHU37160], the potency and affinity (hM3Dq and hM4Di DREADDs) is listed as “high potency and affinity”.
